From US11312702B2, “Substituted quinoline-8-carbonitrile derivatives having androgen receptor degradation activity and uses thereof” (ACCUTAR BIOTECHNOLOGY INC., priority 2019, dated 2022)

Target: T1, androgen receptor (AR) (Homo sapiens, UniProt P10275, T878A)
T1 construct: endogenous in cells; host or cells: LNCAP
T1 sequence (P10275 1-920 T878A): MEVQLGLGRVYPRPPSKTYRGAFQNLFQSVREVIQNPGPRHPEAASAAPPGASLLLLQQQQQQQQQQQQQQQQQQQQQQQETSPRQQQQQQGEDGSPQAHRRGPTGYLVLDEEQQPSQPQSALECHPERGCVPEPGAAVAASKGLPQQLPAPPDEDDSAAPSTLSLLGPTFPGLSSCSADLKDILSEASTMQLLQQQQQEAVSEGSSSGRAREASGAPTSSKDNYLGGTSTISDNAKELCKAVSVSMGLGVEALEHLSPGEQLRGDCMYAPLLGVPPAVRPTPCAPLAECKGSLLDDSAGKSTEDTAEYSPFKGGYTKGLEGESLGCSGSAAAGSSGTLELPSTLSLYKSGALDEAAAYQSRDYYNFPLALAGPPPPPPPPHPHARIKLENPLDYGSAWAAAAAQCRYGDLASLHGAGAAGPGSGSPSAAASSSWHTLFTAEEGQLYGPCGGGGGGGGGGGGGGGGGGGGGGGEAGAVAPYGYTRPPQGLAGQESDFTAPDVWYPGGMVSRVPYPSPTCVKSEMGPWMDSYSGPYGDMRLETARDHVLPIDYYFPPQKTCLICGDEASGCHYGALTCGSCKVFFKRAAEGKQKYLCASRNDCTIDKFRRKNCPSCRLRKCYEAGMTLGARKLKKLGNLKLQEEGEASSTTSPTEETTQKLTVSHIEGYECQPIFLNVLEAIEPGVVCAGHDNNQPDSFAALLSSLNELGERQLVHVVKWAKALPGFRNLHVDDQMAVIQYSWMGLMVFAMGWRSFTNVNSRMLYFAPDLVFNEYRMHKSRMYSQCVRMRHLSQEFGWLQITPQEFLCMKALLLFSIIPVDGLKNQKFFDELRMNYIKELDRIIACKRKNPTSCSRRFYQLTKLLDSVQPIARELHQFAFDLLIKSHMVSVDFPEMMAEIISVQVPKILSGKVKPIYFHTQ
Experiment: AR degradation activity in LNCAP cells (Western blot)
Assay type: cell-based
Conditions: LNCAP cell line, 24 hours after administration; DC50 = concentration for 50% target protein degradation
Procedure: LNCAP, VCAP and 22Rv1 cells were plated in 24-well plates at 1.5×10E5 cells/well in the RPMI growth medium containing 10% FBS and 1% Penicillin Streptomycin, and then incubated at 37° C. overnight. The following day, the test compound was administered to the cells by using 1000× compound stock solution prepared in DMSO at various concentrations. After administration of the compound, the cells were then incubated at 37° C. for 24 hours. Upon completion, the cells were washed with PBS and protein was collected in Laemmli sample buffer (1×; VWR International). Proteins in cell lysate were separated by SDS-PAGE and transferred to Odyssey nitrocellulose membranes (Licor) with iblot® dry blotting transfer system (ThermoFisher). Nonspecific binding was blocked by incubating membranes with Intercept Blocking Buffer (Licor) for 1 hour at room temperature with gentle shaking. The membranes were then incubated overnight at 4° C. with Primary antibodies rabbit anti-AR (1:1,000, Cell Signaling, 5153) and mouse anti-GAPDH (1:5,000, Santa Cruz Biotechnology, sc-47724) diluted in Intercept Blocking Buffer containing 0.1% Tween 20. After washing 3 times with TBS-T, the membranes were incubated with IRDye® […] goat anti-mouse IgG (1:20,000, Licor) or IRDye®8000W goat anti-rabbit IgG (1:20,000, Licor) for 1 hour. After TBS-T washes, membranes were rinsed in TBS and scanned on Odyssey® CLx Imaging System (Licor). The bands were quantified using Image Studio™ Software (Licor).
Table 4 summarizes the androgen receptor (AR) degradative activity and cell growth inhibition of exemplary compounds in (a) LNCAP, VCAP, and 22Rv1 cell lines 24 hours after administration of the compound; (b) RAMOS cell line 3 days after administration of the compound; and (c) VCAP cell line 6 days after administration of the compound. DC50: compound concentration needed for 50% target protein degradation.

Row | Structure (SMILES) | DC50 [nM]
1 | CC1(C)C(NC(=O)c2cnc(N3CCC(CN4CCN(c5cc6c(cc5F)C(=O)N(C5CCC(=O)NC5=O)C6=O)CC4)CC3)nc2)C(C)(C)C1Oc1ccc(C#N)c2ncccc12 (stereo not drawn) [Compound 2-50, N-((1,3-trans)-3-((8-cyanoquinolin-5-yl)oxy)-2,2,4,4-tetramethylcyclobutyl)-2-(4-((4-(2-(2,6-dioxopiperidin-3-yl)-6-fluoro-1,3-dioxoisoindolin-5-yl)piperazin-1-yl)methyl)piperidin-1-yl)pyrimidine-5-carboxamide] | 0.6
2 | CC1(C)C(NC(=O)c2cnc(N3CCC(CN4CCN(c5cc6c(cc5F)C(=O)N(C5CCC(=O)NC5=O)C6=O)CC4)CC3)c(F)c2)C(C)(C)C1Oc1ccc(C#N)c2ncccc12 (stereo not drawn) [Compound 2-52, N-((1,3-trans)-3-((8-cyanoquinolin-5-yl)oxy)-2,2,4,4-tetramethylcyclobutyl)-6-(4-((4-(2-(2,6-dioxopiperidin-3-yl)-6-fluoro-1,3-dioxoisoindolin-5-yl)piperazin-1-yl)methyl)piperidin-1-yl)-5-fluoronicotinamide] | 1.3
3 | CC1(C)C(NC(=O)c2ccc(N3CCC(CN4CCN(c5cc6c(cc5F)C(=O)N(C5CCC(=O)NC5=O)C6=O)CC4)CC3)c(F)c2)C(C)(C)C1Oc1ccc(C#N)c2ncccc12 (stereo not drawn) [Compound 2-48, N-((1,3-trans))-3-((8-cyanoquinolin-5-yl)oxy)-2,2,4,4-tetramethylcyclobutyl)-4-(4-((4-(2-(2,6-dioxopiperidin-3-yl)-6-fluoro-1,3-dioxoisoindolin-5-yl)piperazin-1-yl)methyl)piperidin-1-yl)-3-fluorobenzamide] | 3.8

The next lines start with the values.

Row | DC50 [nM] | Structure (SMILES)
4 | 2.8 | CC(C)N(CC1CCN(c2ccc(C(=O)NC3C(C)(C)C(Oc4ccc(C#N)c5ncccc45)C3(C)C)cn2)CC1)C1CC(Oc2ccc3c(c2)C(=O)N(C2CCC(=O)NC2=O)C3=O)C1 (stereo not drawn) [Compound 2-11, N-((1,3-trans)-3-((8-cyanoquinolin-5-yl)oxy)-2,2,4,4-tetramethylcyclobutyl)-6-(4-((((1r,3r)-3-((2-(2,6-dioxopiperidin-3-yl)-1,3-dioxoisoindolin-5-yl)oxy)cyclobutyl)(isopropyl)amino)methyl)piperidin-1-yl)nicotinamide]
5 | 0.2 | CN(CC1CCN(c2ccc(C(=O)NC3C(C)(C)C(Oc4ccc(C#N)c5ncccc45)C3(C)C)cn2)CC1)C1CC(Oc2ccc3c(c2)C(=O)N(C2CCC(=O)NC2=O)C3=O)C1 (stereo not drawn) [Compound 2-9, N-((1,3-trans)-3-((8-cyanoquinolin-5-yl)oxy)-2,2,4,4-tetramethylcyclobutyl)-6-(4-((((1r,3r)-3-((2-(2,6-dioxopiperidin-3-yl)-1,3-dioxoisoindolin-5-yl)oxy)cyclobutyl)(methyl)amino)methyl)piperidin-1-yl)nicotinamide]
6 | 0.4 | CC1(C)C(NC(=O)c2ccc(N3CCC(CN4CCN(c5cc6c(cc5F)C(=O)N(C5CCC(=O)NC5=O)C6=O)CC4)CC3)nn2)C(C)(C)C1Oc1ccc(C#N)c2ncccc12 (stereo not drawn) [Compound 2-35, N-((1,3-trans)-3-((8-cyanoquinolin-5-yl)oxy)-2,2,4,4-tetramethylcyclobutyl)-6-(4-((4-(2-(2,6-dioxopiperidin-3-yl)-6-fluoro-1,3-dioxoisoindolin-5-yl)piperazin-1-yl)methyl)piperidin-1-yl)pyridazine-3-carboxamide]
7 | 0.8 | CC1(C)C(NC(=O)c2ccc(N3CCC(CN4CCN(c5cc6c(cc5F)C(=O)N(C5CCC(=O)NC5=O)C6=O)CC4)CC3)cc2)C(C)(C)C1Oc1ccc(C#N)c2ncccc12 (stereo not drawn) [Compound 2-47, N-((1,3-trans)-3-((8-cyanoquinolin-5-yl)oxy)-2,2,4,4-tetramethylcyclobutyl)-4-(4-((4-(2-(2,6-dioxopiperidin-3-yl)-6-fluoro-1,3-dioxoisoindolin-5-yl)piperazin-1-yl)methyl)piperidin-1-yl)benzamide]
